{
  "source": "BindingDB's records for doi:10.1016/S0960-894X(01)80892-1",
  "about": "(1993)",
  "data": [
    {"test": "Binding affinity against sigma receptor in guinea pig brain preparation was estimated using [3H]3-PPP as radioligand", "units": {"Ki": "nM"}, "values": [
      {"smiles": "Fc1ccc(C2=CCN(CCCCc3ccncc3)CC2)cc1", "note": "[4-{4-[4-(4-Fluoro-phenyl)-3,6-dihydro-2H-pyridin-1-yl]-butyl}-pyridine]", "Ki": 1.75},
      {"smiles": "COc1ccc(C2=CCN(CCCCc3ccncc3)CC2)cc1", "note": "[4-{4-[4-(4-Methoxy-phenyl)-3,6-dihydro-2H-pyridin-1-yl]-butyl}-pyridine]", "Ki": 0.45},
      {"smiles": "C1=C(c2c[nH]c3ccccc23)CCN(CCCCc2ccncc2)C1", "note": "[3-[1-(4-Pyridin-4-yl-butyl)-1,2,3,6-tetrahydro-pyridin-4-yl]-1H-indole]", "Ki": 10.3},
      {"smiles": "C1=C(c2ccccn2)CCN(CCCCc2ccncc2)C1", "note": "[1'-(4-Pyridin-4-yl-butyl)-1',2',3',6'-tetrahydro-[2,4']bipyridinyl]", "Ki": 44.5},
      {"smiles": "Clc1ccc(C2=CCN(CCCCc3ccncc3)CC2)cc1", "note": "[4-{4-[4-(4-Chloro-phenyl)-3,6-dihydro-2H-pyridin-1-yl]-butyl}-pyridine]", "Ki": 1.04},
      {"smiles": "C1=C(c2ccc3ccccc3c2)CCN(CCCCc2ccncc2)C1", "note": "[4-[4-(4-Naphthalen-2-yl-3,6-dihydro-2H-pyridin-1-yl)-butyl]-pyridine]", "Ki": 3.07},
      {"smiles": "C1=C(c2ccccc2)CCN(CCCCc2ccncc2)C1", "note": "[4-[4-(4-Phenyl-3,6-dihydro-2H-pyridin-1-yl)-butyl]-pyridine]", "Ki": 2.72},
      {"smiles": "Cc1ccc(C2=CCN(CCCCc3ccncc3)CC2)cc1", "note": "[4-[4-(4-p-Tolyl-3,6-dihydro-2H-pyridin-1-yl)-butyl]-pyridine]", "Ki": 5.86},
      {"smiles": "C1=C(c2cccs2)CCN(CCCCc2ccncc2)C1", "note": "[4-[4-(4-Thiophen-2-yl-3,6-dihydro-2H-pyridin-1-yl)-butyl]-pyridine]", "Ki": 2.13}
    ]}
  ]
}
